pIC50: −log10 of the molar value.
How the values were obtained:
[1] = molecular target: T1, Dual specificity tyrosine-phosphorylation-regulated kinase 1A (Homo sapiens, UniProt Q13627); assay: Inhibition of human DYRK1A in presence of ATP by Kinomescan method
[2] = molecular target: T1, Dual specificity tyrosine-phosphorylation-regulated kinase 1A; assay: Inhibition of DYRK1A (unknown origin) extracted from Escherichia coli BL21 (DE3) cells measured for 60 mins by FRET assay
[3] = molecular target: T1, Dual specificity tyrosine-phosphorylation-regulated kinase 1A; assay: Inhibition of human recombinant 6xHis-tagged DYRK1A catalytic domain (1 to 502 residues) extracted from Escherichia coli BL21 (DE3) cells incubated for 30 mins by Bradford's reagent based analysis
[4] = molecular target: T1, Dual specificity tyrosine-phosphorylation-regulated kinase 1A; assay: Inhibition of DYRK1A (unknown origin) by FRET assay
[5] = molecular target: Dual specificity tyrosine-phosphorylation-regulated kinase 1B (Homo sapiens, UniProt Q9Y463); assay: Inhibition of DYRK1B (unknown origin) by DiscoverX KINOMEscan assay
[6] = Half life in human; type: ADME
[7] = molecular target: T1, Dual specificity tyrosine-phosphorylation-regulated kinase 1A; assay: Inhibition of DYRK1A (unknown origin)
[8] = molecular target: T2, Dual specificity tyrosine-phosphorylation-regulated kinase 4 (Homo sapiens, UniProt Q9NR20); assay: Inhibition of DYRK4 (unknown origin)
T2 sequence (Q9NR20 whole entry): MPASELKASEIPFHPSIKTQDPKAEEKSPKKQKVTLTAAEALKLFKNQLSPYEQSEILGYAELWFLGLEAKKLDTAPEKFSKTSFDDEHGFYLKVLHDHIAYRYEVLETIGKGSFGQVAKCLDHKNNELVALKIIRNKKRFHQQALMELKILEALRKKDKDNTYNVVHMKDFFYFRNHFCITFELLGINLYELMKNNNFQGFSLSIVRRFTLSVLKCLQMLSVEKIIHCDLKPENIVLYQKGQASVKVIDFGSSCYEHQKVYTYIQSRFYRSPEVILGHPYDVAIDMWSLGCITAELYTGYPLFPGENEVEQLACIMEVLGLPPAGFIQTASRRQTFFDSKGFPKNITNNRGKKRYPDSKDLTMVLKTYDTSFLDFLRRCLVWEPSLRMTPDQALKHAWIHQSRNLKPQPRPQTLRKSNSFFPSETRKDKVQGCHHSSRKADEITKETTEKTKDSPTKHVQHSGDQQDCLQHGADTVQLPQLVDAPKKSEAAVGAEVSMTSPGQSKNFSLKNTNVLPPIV

[9] = molecular target: Dual specificity protein kinase CLK1 (Homo sapiens, UniProt P49759); assay: Inhibition of CLK1 (unknown origin)
[10] = molecular target: Cyclin-dependent kinase 1 (Homo sapiens, UniProt P06493); assay: Inhibition of CDK1 (unknown origin)
Cyclin-dependent kinase 1, sequence (P06493 whole entry): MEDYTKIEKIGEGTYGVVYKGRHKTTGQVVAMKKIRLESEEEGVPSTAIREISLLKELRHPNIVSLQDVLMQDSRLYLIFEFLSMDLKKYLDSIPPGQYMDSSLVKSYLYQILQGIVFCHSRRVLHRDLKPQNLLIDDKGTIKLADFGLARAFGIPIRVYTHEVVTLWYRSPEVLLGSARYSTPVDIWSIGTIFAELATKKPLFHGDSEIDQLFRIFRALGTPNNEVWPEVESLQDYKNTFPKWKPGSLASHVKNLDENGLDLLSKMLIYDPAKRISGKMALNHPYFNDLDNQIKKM

Dual specificity protein kinase CLK1, sequence (P49759 whole entry): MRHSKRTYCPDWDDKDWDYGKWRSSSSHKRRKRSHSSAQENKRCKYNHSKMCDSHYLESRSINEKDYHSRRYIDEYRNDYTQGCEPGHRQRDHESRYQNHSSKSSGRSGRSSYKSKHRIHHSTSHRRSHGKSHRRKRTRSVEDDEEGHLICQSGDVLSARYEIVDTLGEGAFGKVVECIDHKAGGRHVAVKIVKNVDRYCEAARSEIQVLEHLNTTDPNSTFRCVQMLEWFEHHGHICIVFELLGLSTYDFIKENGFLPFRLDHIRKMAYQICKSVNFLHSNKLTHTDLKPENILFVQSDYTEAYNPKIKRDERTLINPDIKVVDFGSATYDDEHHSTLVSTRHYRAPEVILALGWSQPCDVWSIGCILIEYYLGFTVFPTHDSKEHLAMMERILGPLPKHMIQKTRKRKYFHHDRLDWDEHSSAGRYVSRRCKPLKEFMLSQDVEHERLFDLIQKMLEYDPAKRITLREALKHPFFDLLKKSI
Dual specificity tyrosine-phosphorylation-regulated kinase 1B, sequence (Q9Y463 whole entry): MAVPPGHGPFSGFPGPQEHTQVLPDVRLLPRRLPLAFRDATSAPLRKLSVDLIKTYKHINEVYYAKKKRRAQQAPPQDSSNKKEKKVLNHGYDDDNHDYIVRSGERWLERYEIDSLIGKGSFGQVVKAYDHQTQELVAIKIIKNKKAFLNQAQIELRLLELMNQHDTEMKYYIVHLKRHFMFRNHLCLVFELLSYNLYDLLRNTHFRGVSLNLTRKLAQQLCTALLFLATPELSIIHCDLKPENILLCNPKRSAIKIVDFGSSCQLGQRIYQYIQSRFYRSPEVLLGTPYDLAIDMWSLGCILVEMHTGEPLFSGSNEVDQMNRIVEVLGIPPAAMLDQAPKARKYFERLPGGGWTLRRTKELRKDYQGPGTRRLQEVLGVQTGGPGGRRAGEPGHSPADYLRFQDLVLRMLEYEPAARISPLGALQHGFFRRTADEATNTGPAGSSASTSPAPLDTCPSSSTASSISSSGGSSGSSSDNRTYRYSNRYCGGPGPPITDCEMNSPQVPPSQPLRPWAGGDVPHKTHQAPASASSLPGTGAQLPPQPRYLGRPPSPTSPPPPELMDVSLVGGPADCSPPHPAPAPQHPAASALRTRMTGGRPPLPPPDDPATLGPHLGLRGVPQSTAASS

CCn1c2cc(OC)ccc2c2ccnc(C)c21
pIC50 [1]: 5.05

CN(Cc1ccco1)c1ncnc2ccc(-c3ccc4c(c3)OCO4)cc12
pIC50 [2]: 6.82

O=C1NC(Nc2ccc(O)cc2)=N/C1=C\c1ccc2c(c1)OCO2
pIC50 [2]: 7.08

COC(=N)c1nc2ccc3ncnc(Nc4ccc(F)cc4Br)c3c2s1
pIC50 [1]: 8.52

COc1ccc(-c2c[nH]c3ncc(-c4ccc(OC)c(OC)c4)cc23)cc1
pIC50 [3]: 6.34

COc1ccc(-c2cnc3[nH]cc(-c4ccc(OC)c(OC)c4)c3c2)cc1OC
pIC50 [3]: 4.24

Oc1ccc(-c2cnc3[nH]cc(-c4ccc(O)c(O)c4)c3c2)cc1O
pIC50 [3]: 7.92

COc1ccc2c(c1)[nH]c1c3c(OC)cncc3cc(C#N)c21
pIC50 [4]: 6.74

O=C(Nc1ccc(C(=O)NCc2ccccc2)cc1)Nc1nc2ccc(O)cc2s1
pIC50 [5]: 7.25

CN1CCN(C(=O)c2ccc(NC(=O)Nc3nc4ccc(O)cc4s3)cc2)CC1
half-life [6]: > 1 h

CC(=O)Nc1nc2cc(O)ccc2s1
pIC50 [4]: 6.40

Cc1ccc(NC(=O)c2n[nH]c3ccc(-c4cncc(CN5CCCCC5)c4)cc23)cn1
pIC50 [4]: 9.00

Oc1ccc(-c2cnc3[nH]cc(-c4ccc(F)c(F)c4)c3c2)cc1O
pIC50 [3]: 4.25

CC(C)Nc1cncc(-c2ccc3cnc(NC(=O)C4CCN(C)CC4)cc3c2)n1
pIC50 [7]: 9.00

CC(C)N1CCC(n2cc(C(=O)Nc3cc4cc(-c5cnn(C)c5)ccc4cn3)cn2)CC1
pIC50 [7]: 9.00

COc1ccc(-c2cnc3[nH]cc(-c4ccc(F)c(F)c4)c3c2)cc1OC
pIC50 [3]: 5.28

CCN1/C(=C/C(C)=O)Sc2cc3oc4ccccc4c3cc21
pIC50 [4]: 7.70

COc1ccc(-c2c[nH]c3ncc(-c4ccc(OCc5ccccc5)c(OCc5ccccc5)c4)cc23)cc1OC
pIC50 [3]: 4.73

NC1CCC(Nc2ncc3c(-c4ccnc(NCc5ccccc5)n4)n[nH]c3n2)CC1 (stereo not given)
pIC50 [1]: 8.22

Cc1c(O)cccc1-c1ccc2nc(NC(=O)C3CC3F)sc2c1 (stereo not given)
pIC50 [4]: 8.22

Cc1nc2ccc(-c3ccnc(N)c3)nc2n1-c1ccc(N2CCN(CCOCCOCCC(=O)N3CCN(Cc4ccc(CNc5cccc6c5C(=O)N(C5CCC(=O)NC5=O)C6)cc4)CC3)CC2)c(F)c1 (stereo not given)
pIC50 [7]: > 5.00

COc1ccc(-c2c[nH]c3ncc(-c4ccc(O)c(O)c4)cc23)cc1OC
pIC50 [3]: 6.33

NCC(Nc1nccc(-c2n[nH]c3nc(NC4CCC(N)CC4)ncc23)n1)c1cccc(Cl)c1 (stereo not given)
pIC50 [1]: 8.34

O=c1[nH]c2ccc(-c3cncc(NCc4ccccc4)n3)cc2[nH]1
pIC50 [7]: 9.00

COCCn1nc2c(c1C#N)-c1cnc3[nH]cc(c3c1)-c1cn(nc1C(F)(F)F)CCCC(=O)N(C)C2
pIC50 [7]: > 7.30

COc1nc(NC2CCN(C(C)=O)CC2F)nn2ccc(-c3ccc4nnn(CC(F)F)c4c3)c12 (stereo not given)
pIC50 [7]: 9.00

NC1CCC(Nc2ncc3c(-c4ccnc(NCc5ccsc5)n4)n[nH]c3n2)CC1 (stereo not given)
pIC50 [1]: 7.85

Cc1nc2ccc(-c3cc(N)nc(N)c3)nc2n1-c1ccccc1
pIC50 [4]: 8.70

Cc1nc(Nc2ccccc2)c2c(-c3cc(N)nc(N)c3)c[nH]c2n1
pIC50 [4]: 8.70

Cn1cc(C(=O)Nc2ncc(-c3ccc(C#N)cc3)s2)ccc1=O
pIC50 [7]: > 8.00

COCC(CC(C)C)NC1=N/C(=C\c2ccc3ncsc3c2)C(=O)N1C (stereo not given)
pIC50 [7]: > 8.30

Oc1ccc(-c2cnc3cnc(-c4ccc(O)cc4)nc3c2)cc1
pIC50 [2]: 6.05

COc1ccc(-c2cnc3[nH]cc(-c4ccc(F)cc4)c3c2)cc1OC
pIC50 [3]: 5.84

O=C(NC1=Cc2ccc(O)cc2C1)Nc1ccc(NC(=O)c2ccc(O)cc2)cc1
pIC50 [7]: 8.11

CCCC#Cc1ccnc2[nH]cc(-c3ccnc(N)n3)c12
pIC50 [2]: 7.70

CN1CCN(c2ccc(-c3ncnc4ccc(-c5ccnc(N)c5)cc34)cc2F)CC1
pIC50 [7]: > 7.00

COc1cc2[nH]c(=O)c(C(=O)Nc3cc(C(=O)NCc4cccc(Cl)c4)ccc3C)cc2cc1OCCN1CCOCC1
pIC50 [1]: 7.80

COc1ccc2cc3c4c(cc(OC)c(OC)c4c2c1)C(=O)N3 [ARISTOLACTAM BIII]
pIC50 [8]: 5.93
pIC50 [9]: 7.30
pIC50 [10]: 6.39
